# Results: US11660280B2, “Treatment of drug resistant gliomas” (OKLAHOMA MEDICAL RESEARCH FOUNDATION, priority 2017, dated 2023)
# Legend:
# MPG = assay: RT-PCR gene-fold changes in human GBM cells; assay type: cell-based
# Method: (§1) Quantification of mRNA by real-time quantitative RT-PCR for HIF-1a, MPG and MGMT. Total RNA from all cell lines with all treatments was purified with an RNeasy Mini Kit (Qiagen), and quantified by spectrophotometry (Nanodrop). cDNA was synthesized using SuperScript IV Reverse Transcriptase Kit (Invitrogen).
# (§2) Target gene mRNA was amplified and measured by Bio-Rad CFX96™ Real Time System. Gene expression was determined using the SYBR Select Master Mix (Applied Biosystems). […] The reaction is characterized by the point during cycling when amplification of PCR products is first detected, rather than the amount of PCR product accumulated after a fixed number of cycles. The higher the starting quantity of the template, the earlier a significant increase in fluorescence is observed. The threshold cycle is defined as the fractional cycle number at which fluorescence passes a fixed threshold above the baseline. Fluorescence data were converted into cycle threshold measurements exported to Microsoft Excel. Glyceraldehyde-3-phosphatase dehydrogenase (GAPDH) mRNA expression levels were used as the quantitative internal control. For precise quantification, the mRNA expression level of each sample was normalized using the expression of the GAPDH gene.
# (§3) All primers were synthesized by Integrated DNA Technologies. The primers used were: […]
# (§4) were used to amplify 603-bp transcripts of MPG [9].
# MGMT = assay: RT-PCR gene-fold changes in human GBM cells; assay type: cell-based
# Method: as §1, §2, §3, §4
# F98 tumors = assay: RT-PCR of RNA isolated from F98 untreated and OKN-007-treated tumors; assay type: in vivo, rat; details: OKN-007-treated vs untreated F98 tumors
# Method: Mice and Treatments. Animal studies were conducted in accordance to the OMRF IACUC (Institutional Animal Care and Use Committee) policies, which follow NIH guidelines. For the F98 rat glioma cell implantation model, F98 cells (10^5 in 10-μ1 volume) were intracerebrally implanted with a stereotaxic device (2 mm lateral and 2 mm anterior to the bregma, and at a 3 mm depth) in a total of 15 Fischer 344 rats (male 200-250 gm). The animals were divided into two groups once tumors reached 10-20 mm^3 in volume (as determined by MRI): OKN-007 treated (n=8) and untreated (UT) (n=7) groups. Rats were treated until tumors reached 200-250 mm^3 in volume or for a total of 4-6 weeks. For the G55 GBM cell implantation model, two-month-old male nude mice (Hsd:Athymic Nude-Foxnlnu mice; Harlan Inc., Indianapolis, IN) were implanted intracerebrally with human G55 xenograft cells (1×10^6) per mL suspended in 4 μL in cell culture media of 1% agarose solution. Once tumors reached 10-15 mm^3 (determined via MRI), mice were either treated daily with OKN-007 in the drinking water (150 mg/kg; 0.20% w/v for a 20 g mouse), or every 3 days with TMZ (30 mg/kg). OKN-007 was dissolved in water and made fresh every 2 days. Water bottles were weighed, and the amount of OKN-007 consumed per mouse was determined. […] The average intake of OKN-007 was approximately 140-150 mg/kg/day/mouse. TMZ was dissolved in 5% DMSO and 5% solutol-15 in sterile saline and administered via gavage. Mice were treated until the tumors reached 100-150 mm^3 or for a total of 4-6 weeks. All groups were stratified to ensure that tumor sizes were similar before initiation of treatment.
# RNA isolation and preparation. For the rat F98 glioma study, all rats were euthanized after the last MRI examination. The brain of each animal was removed, and snap frozen in liquid nitrogen, before storage in a −80° C. freezer. Total RNA from all tumor tissues from all treatment groups was purified with an RNeasy Mini Kit (Qiagen), and quantified by spectrophotometry (Nanodrop). cDNA was synthesized using SuperScript IV Reverse Transcriptase Kit (Invitrogen).
# [1] = in vivo; cited from earlier work
# G55 GBM cells = assay: Cell migration in laminin-coated PDMS micro-channels; assay type: cell-based, human; details: at 22 h and 46 h following treatment
# Method: Cell migration. For the migration study, 6-well chambers with PDMS (polydimethylsiloxane) micro-channels inside were coated with 10 μg/ml of laminin (Sigma-Aldrich) in each well. G55 cells were seeded (50×10^3) in 100 μl and supplemented with 2 ml of media in each well. The chambers were incubated in the incubator at 37° C. with 5% CO2 until scheduled time points. Some chambers were treated with OKN-007, TMZ or OKN-007 combined with TMZ (1 μL/mL media for both OKN-007 and TMZ, as well as when the two are combined), and for each treatment group one well was left untreated as a control. Images of the cells inside the microchannels were taken using an Olympus CK40 inverted microscope (Japan) under 10× and the distances of the same cells traveled were measured at 22 h, 28 h, and 46 h post seeding, cell migration speed (μm/h) was calculated. Each treatment was repeated at least 3 times and data shown as mean ±S.D.
structure (smiles),measurement,setting,value
"CC(C)(C)[N+]([O-])=Cc1ccc(S(=O)(=O)O)cc1S(=O)(=O)O [OKN-007, 2,4-disulfonyl phenyl tert-butyl nitrone]",RT-PCR gene-fold change MPG,"MPG; G55 cells (TMZ-resistant), UT 1.06",4.52 fold
same,RT-PCR gene-fold change MPG,"MPG; LN18 cells (TMZ-resistant), UT 1.00",0.60 fold
same,RT-PCR gene-fold change MPG,"MPG; LN229 cells (TMZ-sensitive), UT 1.10",0.62 fold
same,RT-PCR gene-fold change MPG,"MPG; T98 cells (TMZ-resistant), UT 1.10",0.62 fold
same,RT-PCR gene-fold change MPG,"MPG; U138 cells (TMZ-resistant), UT 1.13",11.10 fold
same,RT-PCR gene-fold change MPG,"MPG; U251 cells (TMZ-sensitive), UT 1.10",0.81 fold
same,RT-PCR gene-fold change MGMT,"MGMT; LN18 cells (TMZ-resistant), UT 1.06",0.42 fold
same,RT-PCR gene-fold change MGMT,"MGMT; T98 cells (TMZ-resistant), UT 1.00",0.54 fold
same,RT-PCR gene-fold change MGMT,"MGMT; U251 cells (TMZ-sensitive), UT 1.00",1.22 fold
same,RT-PCR fold change in gene expression ADAMTS1,F98 tumors; Down-regulated,3.57 fold
same,RT-PCR fold change in gene expression CD44,F98 tumors; Down-regulated,3.03 fold
same,RT-PCR fold change in gene expression CDH3,F98 tumors; Down-regulated,3.70 fold
same,RT-PCR fold change in gene expression COL1A1,F98 tumors; Down-regulated,2.27 fold
same,RT-PCR fold change in gene expression COL2A1,F98 tumors; Down-regulated,2.33 fold
same,RT-PCR fold change in gene expression COL3A1,F98 tumors; Down-regulated,3.13 fold
same,RT-PCR fold change in gene expression COL4A1,F98 tumors; Down-regulated,2.94 fold
same,RT-PCR fold change in gene expression COL4A2,F98 tumors; Down-regulated,2.63 fold
same,RT-PCR fold change in gene expression COL5A1,F98 tumors; Down-regulated,3.33 fold
same,RT-PCR fold change in gene expression COL6A1,F98 tumors; Down-regulated,2.94 fold
same,RT-PCR fold change in gene expression COL8A1,F98 tumors; Down-regulated,2.33 fold
same,RT-PCR fold change in gene expression CTGF,F98 tumors; Down-regulated,2.63 fold
same,RT-PCR fold change in gene expression ECM1,F98 tumors; Down-regulated,2.86 fold
same,RT-PCR fold change in gene expression EMILIN1,F98 tumors; Down-regulated,2.27 fold
same,RT-PCR fold change in gene expression FN1,F98 tumors; Down-regulated,2.63 fold
same,RT-PCR fold change in gene expression ITAD,F98 tumors; Down-regulated,2.38 fold
same,RT-PCR fold change in gene expression ITGA2,F98 tumors; Down-regulated,3.7 fold
same,RT-PCR fold change in gene expression ITGB3,F98 tumors; Down-regulated,2.13 fold
same,RT-PCR fold change in gene expression ITGB4,F98 tumors; Down-regulated,3.70 fold
same,RT-PCR fold change in gene expression LAMC1,F98 tumors; Down-regulated,2.33 fold
same,RT-PCR fold change in gene expression MMP1 A,F98 tumors; Down-regulated,4.17 fold
same,RT-PCR fold change in gene expression MMP2,F98 tumors; Down-regulated,2.86 fold
same,RT-PCR fold change in gene expression MMP3,F98 tumors; Down-regulated,3.85 fold
same,RT-PCR fold change in gene expression MMP7,F98 tumors; Down-regulated,2.86 fold
same,RT-PCR fold change in gene expression MMP8,F98 tumors; Down-regulated,3.85 fold
same,RT-PCR fold change in gene expression MMP9,F98 tumors; Down-regulated,7.14 fold
same,RT-PCR fold change in gene expression MMP12,F98 tumors; Down-regulated,16.67 fold
same,RT-PCR fold change in gene expression MMP13,F98 tumors; Down-regulated,50.00 fold
same,RT-PCR fold change in gene expression MMP14,F98 tumors; Down-regulated,2.86 fold
same,RT-PCR fold change in gene expression POSTN,F98 tumors; Down-regulated,33.33 fold
same,RT-PCR fold change in gene expression RGDC,F98 tumors; Down-regulated,3.45 fold
same,RT-PCR fold change in gene expression SELE,F98 tumors; Down-regulated,2.86 fold
same,RT-PCR fold change in gene expression SELL,F98 tumors; Down-regulated,2.13 fold
same,RT-PCR fold change in gene expression SELP,F98 tumors; Down-regulated,2.13 fold
same,RT-PCR fold change in gene expression SPP1,F98 tumors; Down-regulated,8.33 fold
same,RT-PCR fold change in gene expression TGFBI,F98 tumors; Down-regulated,2.22 fold
same,RT-PCR fold change in gene expression THBS2,F98 tumors; Down-regulated,3.7 fold
same,RT-PCR fold change in gene expression TIMP1,F98 tumors; Down-regulated,3.45 fold
same,RT-PCR fold change in gene expression CDH4,F98 tumors; Up-regulated,4.06 fold
same,RT-PCR fold change in gene expression CNTN1,F98 tumors; Up-regulated,15.03 fold
same,RT-PCR fold change in gene expression HAPLN1,F98 tumors; Up-regulated,3.1 fold
same,RT-PCR fold change in gene expression MMP16,F98 tumors; Up-regulated,4.72 fold
same,RT-PCR fold change in gene expression NCAM2,F98 tumors; Up-regulated,11.63 fold
same,RT-PCR fold change in gene expression SGCE,F98 tumors; Up-regulated,8.06 fold
same,RT-PCR fold change in gene expression SPOC1,F98 tumors; Up-regulated,11.08 fold
same,RT-PCR fold change in gene expression SYT1,F98 tumors; Up-regulated,19.03 fold
same,RT-PCR fold change in gene expression VTN,F98 tumors; Up-regulated,3.03 fold
same,crossing of the blood brain barrier,[1],can readily cross the BBB
same,cell migration speed compared to untreated (UT) cells,G55 GBM cells,significantly decreased
